Data as given in patent US11672843B2, “Somatostatin receptor agonist formulations” (CAMURUS AB, priority 2012, dated 2023).
Counter-ions that a name gives are not always drawn. *1 amine or outer side, *2 acyl side, *3 side chain or, on linkers, in order; H or OH if unused. Where a SMILES comes first, the peptide text is derived from it. Side-chain parts run from the residue outwards. [ ]: non-standard residue; d: D form. The star is where a group is joined. Ethylenediamine = C(CN[*:2])N[*:1]; Hyp = O=C(O)[C@@H]1C[C@@H](O)CN1; Phg = N[C@H](C(=O)O)c1ccccc1; CO = O=C([*:1])[*:2]; Bn = c1ccc(C*)cc1

Key:
[1] = cited from earlier work
[2] = Solubility screening of SOM230 in lipid formulations (visual inspection); format: physicochemical
Experimental: Placebo lipid mixture formulations as well as formulations of the single respective lipid alone were prepared in 1 OR vials according to Table 1. The sample size was 6 g. […] The samples were allowed to equilibrate at ambient room temperature; samples with formulation types 1-8 on end-over-end rotation and samples with formulation types 9-12 on magnetic stirring. The flow chart in FIG. 1 describes the sample preparation process. The screening covered the following formulation variables: • Lipid weight ratio (SPC/GDO weight ratio) • Co-solvent nature and concentration • Single lipid formulations • Single solvent (only PG) The samples were studied by visual inspection and the appearance was noted. […] Mixing at ambient room temperature and visual observation continued after addition of more SOM230 drug powder.

[3] = Stability comparison of SOM230 salt forms in lipid formulations, HPLC; format: physicochemical; conditions: storage for 2 weeks at 60° C.; ca 30 mg/mL free base
Experimental: The lipid/SOM230(Pm), lipid/SOM230(Cl) and lipid/SOM230(Ac) formulations were divided into two 2R vials which were placed at 60° C. and the remaining amount from the preparation was assayed by HPLC (time point zero).
The samples stored at 60° C. were pulled out after 2 weeks of storage for visual inspection and HPLC analysis.

SSTR2 and SSTR5 = conditions: cited from earlier work
[4] = in vivo; cited from earlier work

In the case of NCCCC[C@@H]1NC(=O)[C@@H](Cc2c[nH]c3ccccc23)NC(=O)[C@H](c2ccccc2)NC(=O)[C@@H]2C[C@@H](OC(=O)NCCN)CN2C(=O)[C@H](Cc2ccccc2)NC(=O)[C@H](Cc2ccc(OCc3ccccc3)cc2)NC1=O [Pasireotide] (cyclo([Hyp]([CO-Ethylenediamine])[Phg][dW]KY(Bn)F); ring closure inferred), the Half-life ([1]; biological half-life) is given as 2 to 3 h, the “Initial half-life following the peak” value ([1]; human, single subcutaneous dose) is given as 2 to 3 h and the “Solubility of SOM230 in EtOH” value ([2]; ethanol) is given as < 1 wt %. For the same compound, the “Solubility of SOM230 in PG” value ([2]; propylene glycol only) was > 1 wt %.
For NCCCC[C@@H]1NC(=O)[C@@H](Cc2c[nH]c3ccccc23)NC(=O)[C@H](c2ccccc2)NC(=O)[C@@H]2C[C@@H](OC(=O)NCCN)CN2C(=O)[C@H](Cc2ccccc2)NC(=O)[C@H](Cc2ccc(OCc3ccccc3)cc2)NC1=O [SOM230 hydrochloride] (cyclo([Hyp]([CO-Ethylenediamine])[Phg][dW]KY(Bn)F)), the “Stability of salt form in the lipid formulations (HPLC)” value [3] was “more stable than the acetate salt but not as stable as the pamoate salt”.
For C[C@@H](O)[C@@H]1NC(=O)[C@H](CCCCN)NC(=O)[C@@H](Cc2c[nH]c3ccccc23)NC(=O)[C@H](Cc2ccccc2)NC(=O)[C@@H](NC(=O)[C@H](N)Cc2ccccc2)CSSC[C@@H](C(=O)N[C@H](CO)[C@@H](C)O)NC1=O [Octreotide, D-Phe-Cys-Phe-D-Trp-Lys-Thr-Cys-Thr-ol (2-7 disulphide bridge)], the “Selectivity for somatostatin receptors” value (SSTR2 and SSTR5) is given as “high selectivity” and the Terminal half-life [4] is given as “around 1.7 hours”.
For Pasireotide pamoate [SOM230 pamoate], the “Stability of salt form in the lipid formulations (HPLC)” value [3] was “most stable salt form”.
